Where two headings read alike, the source gives them in different places.
Assays:
Format in all cases: cell-based, human
Lovo cells (KRAS-G13D) = assay: Proliferation inhibition (CellTiter-Glo), Lovo; details: 3 days, read-out: Lovo Prolif. EC50
Experimental: (§1) All cancer cell lines (A375, A101D, A2058, RKO, HT29 SK-MEL 30, IPC298, HepG2, HCT-116, Lovo, SWV620, SW480, NCI-H358, NCI-H2122, Calu-6, NCIH2087, NCIH1755, NCIH1666 and Mewo) were obtained from ATCC and cultured in RPMI-1640 medium (Gibco) supplemented with 5% heat inactivated fetal bovine serum (FBS, Wisent) at 37° C. under 5% CO2. Cells were maintained in T175 flasks (Greiner). They were passaged by removing the culture medium, washing once in 10 mL of room temperature Phosphate Buffered Saline (PBS; Wisent) and incubating at 37° C. with 2 mL of 0.05% Trypsin (Thermo-Fisher). Trypsin was then inactivated by adding complete growth medium and the cells were then replated in a T175 culture dish at the appropriate dilution. All cell lines were routinely tested for mycoplasma contamination. Tissue type and mutational status of each cell line can be found in Table B.
(§2) CellTiter-Glo® viability analysis was conducted on cells plated in 100 μL of complete RPMI-1640 growth medium in 96-well flat-bottomed white opaque plates (Greiner or Croning) at a density indicated in Table E (for each CCL, number of cells plated per well of a 96-well plate to perform the CellTiter-Glo® cell viability assay). The cell density in cells/cm^2 would correspond to cell number divided by the area of one well of a 96-well plate (0.32 cm^2). […]
(§3) After 3 days of incubation, the growth media were removed by aspiration and 60 μL of diluted CellTiter-Glo® reagent (10 μL CellTiter-Glo® reagent+50 μL of PBS) was added to each well. […] Luminescence signals were then acquired on a Synergy Neo2 plate reader (Biotek).
(§4) The effect of each compound dilution on the proliferation of cancer cell lines was expressed in % inhibition and calculated as follows. […]
(§5) The ability of each compound to inhibit proliferation was expressed as a EC50 value obtained by plotting the effect values for each data point of a dilution series and fitting the obtained curves using a log(agonist) versus response-variable slope (four parameters) function using GraphPadPrism (V7.0) or Dotmatics Screening Ultra platform.

[1] = test system: HCT-116 cells (KRAS G13D); assay: Proliferation inhibition (CellTiter-Glo), HCT116; details: HCT116, 3 days, read-out: HCT116 Prolif. EC50
Experimental: as §1, §2, §3, §4, §5

[2] = test system: NCI-H2122 cells (KRAS-G12C); assay: Proliferation inhibition (CellTiter-Glo), NCI-H2122; details: NCI-H2122, 3 days, read-out: NCI-H2122 Prolif. EC50
Experimental: as §1, §2, §3, §4, §5

SW620 cells (KRAS-G12V) = assay: Proliferation inhibition (CellTiter-Glo), SW620; details: SW620, 3 days, read-out: SW620 Prolif. EC50
Experimental: as §1, §2, §3, §4, §5

HT29 cells (BRAF V600E) = assay: Proliferation inhibition (CellTiter-Glo), HT29; details: HT-29, 3 days, read-out: HT-29 Prolif. EC50
Experimental: as §1, §2, §3, §4, §5

[3] = test system: pERK in Lovo cells (KRAS-G13D); assay: Phospho-ERK inhibition (AlphaLISA), Lovo; details: for Lovo pERK % Ymin: value in parentheses
Experimental: as §1
AlphaLISA® SureFire® Ultra™ p-ERK 1/2 (Thr202/Tyr204) analysis was conducted on cells plated in 100 μL of complete RPMI-1640 growth medium in 96-well flat-bottomed transparent dishes (Costar) at a density indicated in Table C. Cells were maintained overnight at 37° C. under 5% CO2 before treatment with compounds' dilution series for one hour. The cell density in cells/cm^2 corresponds to cell number divided by the area of one well of a 96-well plate ([…]).
In a dilution series 100 μL/well of test substance dilution prepared in complete RPMI-1640 growth media was added to the cells. The dilution series is selected so that ten concentrations cover a range from 10 μM to 0.33 nM. If necessary the initial concentration of 10 μM is increased to 100 μM or lowered to 1 μM (as in the case of A375 and H1666 cells, which are generally more sensitive to the compounds) and further dilution is carried out accordingly. The final concentration of DMSO in the assay is set at 0.5%.
After treatment, media was removed and cells were lysed in 50 μL of 1× AlphaScreen Ultra Lysis Buffer (Perkin Elmer). The AlphaLISA® SureFire® Ultra™ p-ERK 1/2 (Thr202/Tyr2O4) (PerkinElmer) reactions were performed with 5 μL of cell lysate according to the manufacturer's specifications in 384-well proxyplates (Perkin Elmer) followed by overnight incubation of the reactions at room temperature in a humidified chamber. After completion of the reactions, the signals were recorded on an EnVision plate reader (Perkin Elmer) using built in AlphaLISA® settings.
The effect of each compound dilution on the pERK signal was expressed in % inhibition and calculated as follows. An internal 100% inhibition control ([…] trametinib, cat #HY-10999; MedChem Express; CAS #871700-17-3) was included in each plate and used as a measure of pERK background. First, the value obtained for trametinib was subtracted from each data point. The average of DMSO (vehicle) controls (set as 0% inhibition) was established and used to calculate % inhibition: % inhibition=100*(1-((pERK signalcompound)/(pERK signalDMSO)))
as §5, with “pERK signal” for “proliferation”, “an IC50” for “a EC50”, “inhibition” for “effect”
When present, paradoxical pERK induction is inferred from the negative % inhibition values observed in the pERK IC50 curves of a compound.

| EC50 (Lovo cells (KRAS-G13D); Homo sapiens, 72 h) | EC50 ([1]; Homo sapiens, HCT-116, 72 h) | EC50 ([2]; Homo sapiens, 72 h) | EC50 (SW620 cells (KRAS-G12V); Homo sapiens, SW-620, 72 h) | EC50 (HT29 cells (BRAF V600E); Homo sapiens, 72 h) | IC50 ([3]; Homo sapiens, LoVo) | EC50 (Lovo cells (KRAS-G13D)) | EC50 [1] | EC50 [2] | EC50 (SW620 cells (KRAS-G12V)) | EC50 (HT29 cells (BRAF V600E)) | IC50 ([3]; Lovo) | SMILES | Lovo pERK % Ymin ([3]; Lovo) |
| --- | --- | --- | --- | --- | --- | --- | --- | --- | --- | --- | --- | --- | --- |
| < 30 nM | 300 to 3000 nM | 300 to 3000 nM | 300 to 3000 nM | < 30 nM | < 30 nM |  |  |  |  |  |  | Cc1ccc2c(Nc3cccc(Cl)c3F)nccc2c1NC(=O)c1csc2c(N)ncnc12 [Belvarafenib, reference compound] | −12% |
|  |  |  |  |  |  | < 30 nM | 300 to 3000 nM | 300 to 3000 nM | 300 to 3000 nM | < 30 nM | 30 to 300 nM | Nc1cccc2c1ncn2-c1ccc2ncnc(Nc3c(F)ccc(NS(=O)(=O)c4cccc(Cl)c4Cl)c3F)c2n1 [Example 99] | −15% |
|  |  |  |  |  |  | < 30 nM | 300 to 3000 nM | 300 to 3000 nM | 300 to 3000 nM | < 30 nM | 30 to 300 nM | CC1(O)CCN(c2cccc3c2ncn3-c2ccc3ncnc(Nc4c(F)ccc(NS(=O)(=O)c5cccc(Cl)c5Cl)c4F)c3n2)CC1 [Example 524] | −5% |

From patent US12139488B2, “Pyrido[3,2-d]pyrimidine compounds uses thereof for treating a proliferative disease” (Universite de Montreal, priority 2021, dated 2024)
